Experimental findings from patent US7291600B2, “Non-T cell binding peptides and their uses” (priority 2002, dated 2007) are described below.

The test system of assay [1] is T cell activation (L57.23 cell with 3.19 cell; Priess cell with 3838 cell). The assay can be described thus: T cell activation assay: antigen presenting cells, peptide and T cell clones co-incubated; IL-2 in supernatant read by CTLL proliferation (MTT). The assay is classed as cell-based. As to conditions: FIG. 3; for effect (stimulation) on T cell activation compared with wild type CII peptide: peptide alone with antigen presenting cells and T cells, 48 hours. From the text: Antigen polypeptides are expressed through antigen presenting cells and activate T cells, resulting in the production of inflammation factors in vivo, and further resulting in the typical pathologic changes of rheumatoid arthritis. In the experiment, the inhibition effects of non-T cell binding peptides on T cell activation were detected by measuring T cell proliferation and Interleukin (IL)-2 level. Two sets of systems of antigen presenting and T cell activation, which are recognized internationally, are used in the research.
Wherein one set of antigen presenting and T cell activation system is composed of L57.23 cell and 3.19 cell, and the other set of system is composed of Priess cell and 3838 cell. By comparing the difference in the effects of said seven non-T cell binding peptides on antigen presenting and T cell activation, non-T cell binding peptides which have significant inhibition effect(s) on T cell activation were screened.
Firstly, the antigen presenting cells, different non-T cell binding peptides (10 μg/ml) and corresponding T cells were added into the reaction system and co-incubated at 37° C. for 48 hours. The supernatant was obtained and added into well-grown IL-2 dependent cells (CTLL). The CTLL cell proliferation was detected by using titrazolium salt method (MTT). Thus the inhibition effects of non-T cell binding peptides on T cell activation were determined.

Assay [2] has the same test system. The description is as above. Particulars: for inhibition of the T cell activation effects of wild type DRβ1 binding peptide: co-incubated with wild type peptide and T cell activation system, concentration dependent, FIG. 4. The assay is classed as cell-based.
Assay [3] deals with collagen-induced arthritis (CIA) in Wistar rats. The assay can be described thus: Collagen-induced arthritis (CIA) induced by bovine CII, treated by subcutaneous peptide injection. In kind it is in vivo. As to conditions: for suppression / alleviation of arthritis in rats: CIA rats, result in words. As to the method: In the animal experiment protocol of the present invention, collagen-induced arthritis (CIA) in Wistar rats was induced by bovine CII. The non-T cell binding peptides of the present invention were used to treat the arthritis rats.
The experimental arthritis model used in the present invention is collagen-induced arthritis (CIA) which is recognized internationally. The experimental animals used were American Wistar rats, which belong to a blocking colony. They were cultured successfully by Wistar Institute of USA in 1907. They are among the species that were introduced into our country earliest and were used most widely. The rats used in this experiment were all cultured in the animal center of People's Hospital, Peking University (SPF degree II). The rats were cultured in the polyacylene cages cushioned by serrago. The lightness/darkness cycle was maintained as 12 h/12 h. The water and food were freely available to the rats. All the rats used in the experiment were male, 8-10 weeks of age, body weight 180±10 g. All the protocols related to animals in the experiment were in accordance with Chinese Experimental Animal Regulations.
The bovine type II collagen (catalogue number: C11188) was bought from Sigma Co. Ltd. It was dissolved in acetic acid to make a solution with the final concentration of 8 mg/ml. Then the solution was emulsified with complete Freund's adjuvant (Detroit, USA) of the equal volume. 100 μl of the emulsified solution was injected into the footpad of the right limb of each Wistar rat. The injection dose was […]. Thus the arthritis model of Wistar rats was successfully established.
The swelling of metatarsophalangeal joints and interphalangeal joints was found on all the rats about 15 days after the induction of arthritis in Wistar rats with CII. A 0-16 scale was used to evaluate the extent of arthritis. Each of the 4 paws was assigned a score using a 0-4 scale, wherein zero=no joint swelling, 1=swelling of one joint, 2=swelling of 2 joints, 3=swelling of 3 joints, and 4=swelling of 4 joints, which is the swelling of the whole paw. Four paws were scored respectively, and these scores were summed up to give a total score. Beginning 2 days after the immunization, the rats were subjected to an inspection every day until the experiment had been finished.
(§1) The arthritis rats were randomly divided into 4 groups from Day 4 to Day 7 after arthritis induced therein. There were 3 treatment groups and one control group. Each group consisted of 10 rats. Non-T cell binding peptide 267A was subcutaneously injected into the base of tail of each rat every 3 days. The peptides were dissolved in sterile distilled water before injection. The concentrations used in the 3 treatment groups were 100 μg/ml, 500 μg/ml and 1000 μg/ml respectively, 100 μl for each rat, and the control group received sterile distilled water only. The volume change of right feet was measured by water-expelling method every day. Using the aforementioned method of arthritis evaluation, the arthritis scores were given every day based on the number of joints with arthritis. The rats were killed 18 days after treatment. The peripheral blood was collected. The serum concentrations of the respective cytokines were detected using ELISA kits of TNFα and IL-2 (JingMei Biotech Co. Ltd, ShenZhen, P.R.C). In the meanwhile, the joints of the right limb were detached, fixed, decalcified, sectioned and subjected to HE staining.

Assay [4] relates to TNFα. The assay can be described thus: TNFα concentration in peripheral blood of CIA rats (ELISA). In kind it is in vivo, Wistar rats. As to the method: as §1
(In general: ELISA stands for enzyme-linked immunosorbent assay.)

For assay [5], the system named is collagen-induced arthritis (CIA) in Wistar rats. The assay can be described thus: Collagen-induced arthritis (CIA) induced by bovine CII, treated by subcutaneous peptide injection. The assay is classed as in vivo. Particulars: for number of swollen joints, Average: * significantly reduced compared with the control group (p < 0.01), control 6.2.
[6] abbreviates: 50 mg group, right hind foot, individual rats.
Where [7] appears, read: Day 8, 10, 12 and 14, three treatment groups 100, 500, 1000 μg/ml, 100 μl s.c. every 3 days.
The mark [8] stands for this setting: 10 mg group, right hind foot, individual rats.

Values joined by “and” are separate entries in the source; they are usually repeats but may differ in a detail not shown here. Equal values may be shown once. “Also recorded” adds a separate entry of the source. No end group written: not given here. *: point of attachment. Myristoyl = CCCCCCCCCCCCCC(=O)*

With “FKGEQGAAGE (Myristoyl-FKGEQGAAGE) [Mut 269-270, amino-terminal linked to myristic acid]”, the “effect (stimulation) on T cell activation compared with wild type CII peptide” value (shortened to “effect … compared with wild type CII peptide”) in assay [1] is “none of polypeptides Mut 267-270, Mut 268-270, Mut 269-270, 269A and 270A has significant effect on T cell activation”.
Take “FKGEGAGAGE (Myristoyl-FKGEGAGAGE) [Mut 267-270, amino-terminal linked to myristic acid]”: the “inhibition of the T cell activation effects of wild type DRβ1 binding peptide” value in assay [2] is on record as “significant effects”. The “suppression / alleviation of arthritis in rats” value in assay [3] is recorded as “significant effects”. For the same substance, in assay [1], the “effect … compared with wild type CII peptide” value is “none of polypeptides Mut 267-270, Mut 268-270, Mut 269-270, 269A and 270A has significant effect on T cell activation”.
In the case of “FKGEQAGAGE (Myristoyl-FKGEQAGAGE) [Mut 268-270, amino-terminal linked to myristic acid]”, the “effect … compared with wild type CII peptide” value in assay [1] is “none of polypeptides Mut 267-270, Mut 268-270, Mut 269-270, 269A and 270A has significant effect on T cell activation”.
With “FKGEAGPKGE (Myristoyl-FKGEAGPKGE) [267A, amino-terminal linked to myristic acid]”, the “concentration of TNFα in peripheral blood vs control group” value in assay [4] (100 μg/ml treated group, p<0.05, FIG. 7) is recorded as “significantly lower”; in assay [4] (the other two treatment groups (500 and 1000 μg/ml)) it was “No significant variety”. Also, the “inhibition of the T cell activation effects of wild type DRβ1 binding peptide” value in assay [2] is given as “significant effects”. Also, the “number of swollen joints” value in assay [3] (setting [6]) is 4 (2×) and 6 (2×) and 2 and 1 (3×) and 3 (2×); in assay [5] (setting [8]), 2 (2×) and 4 (3×) and 3 (2×) and 1 (2×) and 6. In addition, the “swelling of the right feet” value in assay [3] (3 treatment groups, within the first 2 weeks after treatment) is “alleviated”. Also, in assay [3] (100, 500 and 1000 μg/ml groups, Day 8, 10, 12 and 14), the “difference among the 3 treatment groups in right foot swelling ratios and arthritis scores” value is “no significant difference”. In addition, the “suppression / alleviation of arthritis in rats” value in assay [3] was “significant effects; also recorded: significantly suppress arthritis in rats and alleviate the swelling of joints, and shorten the disease course; also recorded: significantly alleviated”. In addition, in assay [3] (setting [7]), the “arthritis score vs control group” value is “significantly lower”. In assay [3] (setting [7]), the “swelling ratio of right feet vs control group” value is listed as “significantly lower”. In addition, in assay [3] (three treatment groups, Day 8 and Day 16 after treatment, p<0.05), the “remission ratio of CIA vs control group” value is “remission ratio(s) of CIA in the control group are significantly lower than that in the three treatment groups; also recorded: significantly higher”. For the same substance, the figures for the “number of swollen joints, Average” value in assay [5] (10 mg group average) and in assay [5] (50 mg group average) were 3.15* and 3.25*, respectively. Further, the Hind foot volume in assay [5] (setting [8]) was 1.2 ml (2×) and 1.5 ml and 1.4 ml and 1.3 ml (5×) and 1.1 ml; in assay [5] (setting [6]), 1.4 ml (5×) and 1.7 ml and 1.3 ml and 1.1 ml and 1.6 ml (2×).
As to “FKGEQGPAGE (Myristoyl-FKGEQGPAGE) [270A, amino-terminal linked to myristic acid]”, in assay [1], the “effect … compared with wild type CII peptide” value is “none of polypeptides Mut 267-270, Mut 268-270, Mut 269-270, 269A and 270A has significant effect on T cell activation”.
Consider “wild type DRβ1 binding peptide: wild type CII263-272 polypeptide (F K G E Q G P K G E), contains the antigen epitope of Collagen type II (FKGEQGPKGE) [reference compound]”, for which the “stimulation of T cell proliferation” value in assay [2] (at 400, 200, 80, 40 and 20 μg/ml) is “able to stimulate T cell proliferation”. For the same substance, the “concentration of IL-2 in the supernatant” value in assay [1] (non-T cell binding peptides compared with wild type peptide, p<0.01) is “high concentration of IL-2”.
On to “FKGEQGAKGE (Myristoyl-FKGEQGAKGE) [269A, amino-terminal linked to myristic acid]”, for which the “effect … compared with wild type CII peptide” value in assay [1] is “none of polypeptides Mut 267-270, Mut 268-270, Mut 269-270, 269A and 270A has significant effect on T cell activation”.
